Reference: ChEMBL document CHEMBL1201862, “PubChem BioAssay data set” (2004)
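Assay format: 96-well plates, 48-hour exposure. GI50 marks 50% less growth.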 Activity calls are given as the source filed them. No stated cut-off is given here; in the data, active = GI50 up to about 1.1 µM and inactive = higher.

How the values were obtained:
Assay in all cases: inhibition of tumour cell growth, NCI panel, 48 h
[1] = system: Hs-578T
[2] = system: KM12
[3] = system: COLO 205
[4] = system: MOLT-4
[5] = system: SF-295
[6] = system: SK-MEL-28
[7] = system: U-251
[8] = system: 786-0
[9] = system: MDA-MB-231
[10] = system: HL-60
[11] = system: LOX IMVI
[12] = system: NCI/ADR-RES
[13] = system: Malme-3M
[14] = system: HCT-15
[15] = system: UACC-62
[16] = system: UO-31
[17] = system: ACHN
[18] = system: SNB-75
[19] = system: MCF7
[20] = system: RXF 393

Compound	GI50 [1]	GI50 [2]	GI50 [3]	GI50 [4]	GI50 [5]	GI50 [6]	GI50 [7]	GI50 [8]	GI50 [9]	GI50 [10]	GI50 [11]	GI50 [12]	GI50 [13]	GI50 [14]	GI50 [15]	GI50 [16]	GI50 [17]	GI50 [18]	GI50 [19]	GI50 [20]
CC(=O)OC1COC(n2c(-c3ccc(Cl)cc3)cc(-c3ccccc3)c(C#N)c2=S)C(OC(C)=O)C1OC(C)=O (stereo not given)	0.552 µM (active)	14.7 µM (inactive)	18.3 µM (inactive)	50.1 µM (inactive)	14.7 µM (inactive)	> 28.9 µM (inactive)	3.78 µM (inactive)	12.5 µM (inactive)	2.88 µM (inactive)	37.7 µM (inactive)	3.58 µM (inactive)	14.1 µM (inactive)	49.9 µM (inactive)	23.4 µM	19.1 µM (inactive)	17.6 µM (inactive)	17.5 µM (inactive)	15.7 µM (inactive)	8.43 µM (inactive)	12.9 µM (inactive)
N#CSc1ccc(S(N)(=O)=O)cc1	> 100 µM (inactive)	> 100 µM (inactive)	71.1 µM (inactive)	1 µM (active)	> 100 µM (inactive)	76.7 µM (inactive)	17.4 µM (inactive)	26.1 µM (inactive)	44.6 µM (inactive)	14.3 µM (inactive)	31.3 µM (inactive)	> 100 µM (inactive)	83.6 µM (inactive)	40.4 µM	70 µM (inactive)	19.4 µM (inactive)	29.6 µM (inactive)	> 100 µM (inactive)	35.6 µM (inactive)	26.1 µM (inactive)
CCOC(=O)C1=C(OS(=O)(=O)C(F)(F)F)CCCC1	> 100 µM (inactive)	> 100 µM (inactive)	> 100 µM (inactive)	> 100 µM (inactive)	> 100 µM (inactive)	> 100 µM (inactive)	> 100 µM (inactive)	> 100 µM (inactive)	> 100 µM (inactive)	> 100 µM (inactive)	> 100 µM (inactive)	> 100 µM (inactive)	> 100 µM (inactive)	> 100 µM	> 100 µM (inactive)	> 100 µM (inactive)	> 100 µM (inactive)	> 100 µM (inactive)	> 100 µM (inactive)	> 100 µM (inactive)
